The record followed here is paper PMC5041986 (Oncotarget, 2016).

For one assay, the system named is HUVEC. The assay can be described thus: MTT cell viability assay. Conditions: Homo sapiens, HUVEC (normal cell), 72 h. Type of assay: cell-based. A general note: Tetrazolium dyes change colour on reduction, which living cells bring about.
A further assay has as its system RT-112 cells. The assay can be described thus: Flow cytometric cell cycle analysis. Type of assay: cell-based. The following applies: flow cytometry. Here is the method:
Cells were seeded in 6-well plates and treated with DMSO or indicated compounds at various concentrations for the indicated times. After treatment, the cells were harvested by trypsinization, washed with PBS, and the pellets were fixed in ice-cold 70% ethanol at -20°C overnight. After centrifugation, the cells were incubated for 15 minutes at room temperature in 0.1 mL of phosphate-citric acid buffer (0.2 M NaHPO4, 0.1 M citric acid, and pH 7.8) and then stained with propidium iodide staining buffer containing Triton X-100 (0.1%, v/v), RNase A (100 μg/mL), and propidium iodide (80 μg/mL) for 30 minutes in the dark. DNA contents were analyzed by flow cytometry with CellQuest software (Becton Dickinson, Mountain View, CA, USA). The results were obtained from three independent experiments and the representative data were shown in Supplementary Figure S8 and S9.
On the technique in general: A flow cytometer gives signals particle by particle.

SMILES strings stand for the structures.

Procedure for HUVEC: Cells were seeded in 96-well plates and exposed to DMSO, or indicated compounds for 72 hours. Cell viability was assessed using the 3-(4,5-dimethylthiazol-2-yl)-2,5-diphenyltetrazolium bromide (MTT) assay as described previously [46]. Briefly, 100 μl of 0.5 mg/ml MTT were added to each well and incubated at 37°C for 1 hour. After that, 100 μl of extraction reagents (0.1 M sodium acetate buffer for suspension cells or DMSO for attached cells) were added to each well to lyse cells and absorbance at 550 nm was measured. Cell viability was expressed as the percentage of surviving cells in drug-treated versus DMSO-treated control cells (which was considered as 100% viability).

One may read the IC50 as the midpoint of a concentration-inhibition curve. High values mean lower potency, low ones higher potency. As for `CCN1CCN(c2ccc(Nc3cc(N(C)C(=O)Nc4c(Cl)c(OC)cc(OC)c4Cl)ncn3)cc2)CC1` [BGJ-398, 3-(2,6-dichloro-3,5-dimethoxy-phenyl)-1-{6-[4-(4-ethyl-piperazin-1-yl)-phenylamino]-pyrimidin-4-yl}-1-methyl-urea], the concentration for half-maximal inhibition (IC50) in the assay on HUVEC was 0.05 µM. The “G0/G1 cell cycle arrest” value with RT-112 cells (4 μM, 24 h) is reported as “also observed”. Besides, in the assay on RT-112 cells (48 h to 72 h), the “accumulation of the sub-G1 phase (apoptotic cell death)” value was “induced pronounced apoptosis”.
